Entries after “also recorded” stand apart in the source; their conditions may differ. Like-named read-outs stand apart in the source and are kept apart here.
Legend:
Assay type in all cases: binding
human SSTR1 = molecular target: T1, human SSTR1 (Homo sapiens, UniProt P30872); assay: Displacement of 125I-[Leu8,D-Trp22,Tyr25]-somatostatin-28 from cloned SSTR1 (receptor autoradiography on membrane pellets)
T1 construct: expressed in transfected cells; host or cells: CHO-K1 cells and CCL39 cells
Procedure: (§1) Generally, recombinant cells expressing the receptor are washed and homogenized to prepare a crude protein homogenate in a suitable buffer, as known in the art. In a typical assay, an amount of protein from the cell homogenate is placed into a small volume of an appropriate assay buffer at an appropriate pH. Candidate substances, such as potential SRIF agonists and antagonists, are added to the admixture in convenient concentrations, and the interaction between the candidate substance and the receptor polypeptide is monitored.
(§2) Receptor binding assays are performed on cloned SRIF receptors as generally set forth in Raynor et al. supra. Using such assays, one can generate KD values which are indicative of the concentration of a ligand necessary to occupy one-half (50%) of the binding sites on a selected amount of a receptor or the like, or alternatively, competitive assays can generate IC50 values which are indicative of the concentration of a competitive ligand necessary to displace a saturation concentration of a target ligand being measured from 50% of binding sites.
(§3) In vitro Bioassay: The various somatostatin analogs are tested in vitro for their ability to bind to isolated cloned receptors expressed on CHO-K1 cells and CCL39 cells. CHO-K1 cells are grown in Ham's F-12 medium, and CCL39 cells are grown in Dulbecco's modified Eagle's medium/Ham's F-12(1:1) mix, supplemented with 10% fetal bovine serum, 100 U/ml penicillin and 100 μg/ml streptomycin, in humidified air containing 5% CO2 at 37° C.
(§4) Cells are washed twice with and scraped into ice-cold 0.05 M Tris-HCl (pH 7.4), collected by centrifugation, and homogenized using a rotor/stator slash system in the same buffer. After centrifugation at 120 g for 5 min. at 4° C., the supernatant is collected and centrifuged again at 48,000 g for 30 min. at 4° C. The resulting pellet is resuspended in ice-cold Tris buffer, transferred into a microfuge tube, and centrifuged at 20,000 g for 15 min. at 4° C. After withdrawal of the supernatant, the membrane pellet is stored at −80° C.
(§5) Receptor autoradiography is performed on 20 μm thick cryostat sections of the membrane pellets, mounted on microscope slides, and then stored at −20° C. […] […] Unlabeled somatostatin-28 is run in parallel using the same increasing concentrations, as a control. IC50 values are calculated after quantification of the data using a computer-assisted image processing system as known in this art.

human SSTR2 = molecular target: T2, human SSTR2 (Homo sapiens, UniProt P30874); assay: Displacement of 125I-[Leu8,D-Trp22,Tyr25]-somatostatin-28 from cloned SSTR2 (receptor autoradiography on membrane pellets)
T2 construct: expressed in transfected cells; host or cells: CHO-K1 cells and CCL39 cells
T2 sequence (P30874 whole entry): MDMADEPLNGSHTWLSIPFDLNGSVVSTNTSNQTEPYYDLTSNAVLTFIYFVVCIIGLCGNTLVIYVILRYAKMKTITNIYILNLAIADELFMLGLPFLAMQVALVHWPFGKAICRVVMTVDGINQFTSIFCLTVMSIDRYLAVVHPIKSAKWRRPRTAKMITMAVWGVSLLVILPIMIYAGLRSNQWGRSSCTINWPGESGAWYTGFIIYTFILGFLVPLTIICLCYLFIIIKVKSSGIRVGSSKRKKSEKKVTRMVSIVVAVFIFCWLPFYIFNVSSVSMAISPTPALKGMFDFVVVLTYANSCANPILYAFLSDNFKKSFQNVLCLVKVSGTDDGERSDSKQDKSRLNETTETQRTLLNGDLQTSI
Procedure: as §1, §2, §3, §4, §5

human SSTR3 = molecular target: T3, human SSTR3 (Homo sapiens, UniProt P32745); assay: Displacement of 125I-[Leu8,D-Trp22,Tyr25]-somatostatin-28 from cloned SSTR3 (receptor autoradiography on membrane pellets); conditions: for relative potency at SSTR3 by comparison to SRIF-28: binding affinity relative to SRIF-28 (=1); for binding strength and selectivity for SSTR3, in words: qualitative statement
T3 construct: expressed in transfected cells; host or cells: CHO-K1 cells and CCL39 cells
T3 sequence (P32745 whole entry): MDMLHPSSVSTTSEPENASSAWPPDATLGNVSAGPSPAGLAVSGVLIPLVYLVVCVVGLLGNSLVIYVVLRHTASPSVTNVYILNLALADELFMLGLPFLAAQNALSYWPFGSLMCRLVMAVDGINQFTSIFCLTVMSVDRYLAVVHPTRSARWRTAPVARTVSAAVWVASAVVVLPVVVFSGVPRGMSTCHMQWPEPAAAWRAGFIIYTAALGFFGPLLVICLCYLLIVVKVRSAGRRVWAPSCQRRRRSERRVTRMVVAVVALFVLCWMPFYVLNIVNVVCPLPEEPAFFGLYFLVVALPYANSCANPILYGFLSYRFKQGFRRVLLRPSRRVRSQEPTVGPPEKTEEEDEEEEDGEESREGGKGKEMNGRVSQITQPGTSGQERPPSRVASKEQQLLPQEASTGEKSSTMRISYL
Procedure: as §1
as §2, with “sites. The peptide des-AA^1,2,4,5,12,13-[D-Agl^8(Me,2-naphthoyl)]SRIF inhibits the binding to SSTR3 of an iodinated SRIF-28 ligand that has strong affinity for all five receptors.” for “sites.”
as §3, §4
(§6) Receptor autoradiography is performed on 20 μm thick cryostat sections of the membrane pellets, mounted on microscope slides, and then stored at −20° C. For each of the tested compounds, complete displacement experiments are performed with the universal somatostatin ligand radioligand ^125I-[Leu^8,D-Trp^22,Tyr^25]-somatostatin-28 that binds with strong affinity to all five receptors. Increasing concentrations of the unlabeled peptide are used ranging from 0.1-1000 nM. Unlabeled somatostatin-28 is run in parallel using the same increasing concentrations, as a control. IC50 values are calculated after quantification of the data using a computer-assisted image processing system as known in this art.
(§7) The potencies of certain SRIF analogs to inhibit radioligand binding of ^125I-[Leu^8,D-Trp^22,[…]]SRIF-28 to the various cloned SRIF receptors are shown in the following table wherein the IC50 values are given in nanomolar concentration.

human SSTR5 = molecular target: T4, human SSTR5 (Homo sapiens, UniProt P35346); assay: Displacement of 125I-[Leu8,D-Trp22,Tyr25]-somatostatin-28 from cloned SSTR5 (receptor autoradiography on membrane pellets)
T4 construct: expressed in transfected cells; host or cells: CHO-K1 cells and CCL39 cells
T4 sequence (P35346 whole entry): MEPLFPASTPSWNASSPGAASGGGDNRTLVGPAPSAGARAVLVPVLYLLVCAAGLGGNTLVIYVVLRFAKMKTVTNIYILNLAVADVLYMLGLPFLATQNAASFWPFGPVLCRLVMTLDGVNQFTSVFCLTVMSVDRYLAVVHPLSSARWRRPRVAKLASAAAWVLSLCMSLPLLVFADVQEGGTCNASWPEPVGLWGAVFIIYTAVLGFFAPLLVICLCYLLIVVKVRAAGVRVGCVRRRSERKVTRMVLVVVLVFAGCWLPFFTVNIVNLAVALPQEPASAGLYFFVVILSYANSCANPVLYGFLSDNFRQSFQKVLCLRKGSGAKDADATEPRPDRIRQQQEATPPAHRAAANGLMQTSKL
Procedure: as §1
as §2, with “sites. The peptide des-AA^1,2,4,5,12,13-[D-Agl^8(Me,2-naphthoyl)]SRIF inhibits the binding to SSTR3 of an iodinated SRIF-28 ligand that has strong affinity for all five receptors.” for “sites.”
as §3, §4
as §6, with “Increasing concentrations of the unlabeled peptide are used ranging from 0.1-1000 nM.” left out
as §7

human SSTR4 = molecular target: T5, human SSTR4 (Homo sapiens, UniProt P31391); assay: Displacement of 125I-[Leu8,D-Trp22,Tyr25]-somatostatin-28 from cloned SSTR4 (receptor autoradiography on membrane pellets)
T5 construct: expressed in transfected cells; host or cells: CHO-K1 cells and CCL39 cells
T5 sequence (P31391 whole entry): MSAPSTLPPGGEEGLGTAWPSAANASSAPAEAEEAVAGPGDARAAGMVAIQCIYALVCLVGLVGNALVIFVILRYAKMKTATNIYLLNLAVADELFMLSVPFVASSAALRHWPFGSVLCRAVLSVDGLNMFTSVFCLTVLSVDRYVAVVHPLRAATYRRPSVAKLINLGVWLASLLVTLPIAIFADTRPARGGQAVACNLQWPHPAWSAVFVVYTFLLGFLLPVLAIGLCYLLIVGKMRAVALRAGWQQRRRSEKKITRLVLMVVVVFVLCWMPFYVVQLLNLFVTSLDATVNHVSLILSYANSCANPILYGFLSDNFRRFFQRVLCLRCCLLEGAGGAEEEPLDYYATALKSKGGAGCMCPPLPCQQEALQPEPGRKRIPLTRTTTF
Procedure: as §1, §2, §3, §4, §5

[1] = inhibition of 125I-[Leu8,D-Trp22,Tyr24]SRIF-28 binding, cloned receptor, read-out: IC50 (nM) mSSTR1
[2] = inhibition of 125I-[Leu8,D-Trp22,Tyr24]SRIF-28 binding, cloned receptor, read-out: IC50 (nM) mSSTR2
[3] = inhibition of 125I-[Leu8,D-Trp22,Tyr24]SRIF-28 binding, cloned receptor, read-out: IC50 (nM) mSSTR3
[4] = iodinated SRIF-28 ligand, cloned human receptor, read-out: IC50 at cloned human SSTR3
[5] = inhibition of 125I-[Leu8,D-Trp22,Tyr24]SRIF-28 binding, cloned receptor, read-out: IC50 (nM) mSSTR5
[6] = inhibition of 125I-[Leu8,D-Trp22,Tyr24]SRIF-28 binding, cloned receptor, read-out: IC50 (nM) mSSTR4

T1 sequence (P30872 whole entry): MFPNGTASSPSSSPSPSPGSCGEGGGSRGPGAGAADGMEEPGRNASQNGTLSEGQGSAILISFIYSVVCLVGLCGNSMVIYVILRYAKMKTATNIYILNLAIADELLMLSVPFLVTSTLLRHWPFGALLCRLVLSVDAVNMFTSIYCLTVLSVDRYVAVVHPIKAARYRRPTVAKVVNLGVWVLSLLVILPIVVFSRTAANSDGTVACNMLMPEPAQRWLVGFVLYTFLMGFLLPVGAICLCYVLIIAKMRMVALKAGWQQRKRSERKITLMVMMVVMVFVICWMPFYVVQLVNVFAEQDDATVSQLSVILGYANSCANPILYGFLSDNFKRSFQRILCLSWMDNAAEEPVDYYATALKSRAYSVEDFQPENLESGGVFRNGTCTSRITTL

| Compound | IC50 (human SSTR1; [1]) [nM] | IC50 (human SSTR2; [2]) [nM] | relative potency at SSTR3 by comparison to SRIF-28 (human SSTR3) | IC50 (human SSTR3; [3]) [nM] | binding strength and selectivity for SSTR3, in words (human SSTR3) | IC50 (human SSTR5; [5]) [nM] | IC50 (human SSTR4; [6]) [nM] | further results |
| --- | --- | --- | --- | --- | --- | --- | --- | --- |
| C[C@@H](O)[C@@H]1NC(=O)[C@H](CCCCN)NC(=O)[C@@H](N(C)C(=O)c2ccc3ccccc3c2)NC(=O)[C@H](Cc2ccc(O)cc2)NC(=O)[C@H](Cc2ccccc2)NC(=O)[C@@H](N)CSSC[C@@H](C(=O)O)NC(=O)[C@H](Cc2ccccc2)NC1=O [Peptide No. 2, (cyclo)H-Cys-Phe-Tyr-D-Agl(Me,2Np)-Lys-Thr-Phe-Cys-OH] | > 10000 | > 10000 | about 0.13 | 70 ± 18 | selectively bound to SSTR3 | > 10000 | > 1000 | effect on binding of the SRIF-28 radioligand to human SSTR1 (human SSTR1; peptide at 100 nM): minimal effects; effect on binding of the SRIF-28 radioligand to human SSTR2 (human SSTR2; peptide at 100 nM): minimal effects; IC50 (human SSTR3; [4]): ~70 nM; binding strength and selectivity for SSTR3, in words (human SSTR3; listed as Peptide 2): bind strongly and selectively to SSTR3; effect on binding of the SRIF-28 radioligand to human SSTR5 (human SSTR5; peptide at 100 nM): minimal effects; effect on binding of the SRIF-28 radioligand to human SSTR4 (human SSTR4; peptide at 100 nM): minimal effects |
| C[C@@H](O)[C@@H]1NC(=O)[C@H](CCCCN)NC(=O)[C@@H](N(C)C(=O)c2ccc3ccccc3c2)NC(=O)[C@H](Cc2ccc(O)cc2)NC(=O)[C@H](Cc2ccccc2)NC(=O)[C@H](N)CSSC[C@@H](C(=O)O)NC(=O)[C@H](Cc2ccccc2)NC1=O [Peptide No. 2A, (cyclo 3-14)H-D-Cys-Phe-Tyr-D-Agl(Me,2Np)-Lys-Thr-Phe-Cys-OH] | > 10000 | > 10000 | about 0.24 | 39 ± 11 | selectively binds to SSTR3 | > 10000 | > 10000 | IC50 (human SSTR3; [4]): ~39 nM; binding strength and selectivity for SSTR3, in words (human SSTR3; listed as Peptide 2A): bind strongly and selectively to SSTR3 |
| C[C@@H](O)[C@@H]1NC(=O)[C@H](CCCCN)NC(=O)[C@@H](N(C)C(=O)c2ccc3ccccc3c2)NC(=O)[C@H](Cc2ccccc2)NC(=O)[C@H](Cc2ccccc2)NC(=O)[C@@H](N)CSSC[C@@H](C(=O)O)NC(=O)[C@H](Cc2ccccc2)NC1=O [Peptide No. 2B, (cyclo 3-14)H-Cys-Phe-Phe-D-Agl(Me,2Np)-Lys-Thr-Phe-Cys-OH] | > 10000 | > 10000 | about 0.13 | 70 ± 17 | selectively binds to SSTR3 | > 10000 | > 10000 | IC50 (human SSTR1; iodinated SRIF-28 ligand, cloned human receptor, read-out: concentration below which no binding to human SSTR1): > 10000 nM; IC50 (human SSTR2; iodinated SRIF-28 ligand, cloned human receptor, read-out: concentration below which no binding to human SSTR2): > 10000 nM; IC50 at cloned human SSTR3 (human SSTR3; iodinated SRIF-28 ligand, cloned human receptor): about the same as No. 2; IC50 (human SSTR3; [4]): ~70 nM; binding strength and selectivity for SSTR3, in words (human SSTR3; listed as Peptide 2B): bind strongly and selectively to SSTR3; IC50 (human SSTR5; iodinated SRIF-28 ligand, cloned human receptor, read-out: concentration below which no binding to human SSTR5): > 10000 nM; IC50 (human SSTR4; iodinated SRIF-28 ligand, cloned human receptor, read-out: concentration below which no binding to human SSTR4): > 1000 nM |
| C[C@@H](O)[C@@H]1NC(=O)[C@H](CCCCN)NC(=O)[C@@H](N(C)C(=O)c2ccc3ccccc3c2)NC(=O)[C@H](Cc2ccc(Cl)cc2)NC(=O)[C@H](Cc2ccccc2)NC(=O)[C@@H](N)CSSC[C@@H](C(=O)O)NC(=O)[C@H](Cc2ccccc2)NC1=O [Peptide No. 2C, (cyclo 3-14)H-Cys-Phe-4ClPhe-D-Agl(Me,2Np)-Lys-Thr-Phe-Cys-OH] | > 1000 | > 1000 |  | 300 |  | > 10000 | > 10000 | binding strength and selectivity for SSTR3, in words (human SSTR3; listed as Peptide 2C): bind strongly and selectively to SSTR3; also recorded: slightly less selective |
| C[C@@H](O)[C@@H]1NC(=O)[C@H](CCCCN)NC(=O)[C@@H](N(C)C(=O)c2ccc3ccccc3c2)NC(=O)[C@H](Cc2ccccc2)NC(=O)[C@H](Cc2ccccc2)NC(=O)[C@H](N)CSSC[C@@H](C(=O)O)NC(=O)[C@H](Cc2ccccc2)NC1=O [Peptide No. 2D, (cyclo 3-14)H-D-Cys-Phe-Phe-D-Agl(Me,2Np)-Lys-Thr-Phe-Cys-OH] | > 10000 | > 10000 | about 0.08 | 115 ± 36 |  | > 1000 | > 10000 | binding strength and selectivity for SSTR3, in words (human SSTR3; listed as Peptide 2D): bind strongly and selectively to SSTR3; also recorded: slightly less selective |
| (cyclo 3-14)H-Cys-Lys-Asn-Phe-Tyr-D-Agl(Me,2Np)-Lys-Thr-Phe-Thr-Ser-Cys-OH [Peptide No. 2G] |  |  |  |  | binds selectively to SSTR3 but has fairly low affinity for all five SRIF receptors |  |  |  |

The next lines start with results.

| IC50 (human SSTR1; [1]) [nM] | IC50 (human SSTR2; [2]) [nM] | relative potency at SSTR3 by comparison to SRIF-28 (human SSTR3) | IC50 (human SSTR3; [3]) [nM] | binding strength and selectivity for SSTR3, in words (human SSTR3) | IC50 (human SSTR5; [5]) [nM] | IC50 (human SSTR4; [6]) [nM] | Compound | further results |
| --- | --- | --- | --- | --- | --- | --- | --- | --- |
| > 1000 | > 1000 |  | 180 |  | > 1000 | > 10000 | C[C@@H](O)[C@@H]1NC(=O)[C@H](CCCCN)NC(=O)[C@@H](N(C)C(=O)c2ccc3ccccc3c2)NC(=O)[C@H](Cc2ccc(Cl)cc2)NC(=O)[C@H](Cc2ccccc2)NC(=O)[C@H](N)CSSC[C@@H](C(=O)O)NC(=O)[C@H](Cc2ccccc2)NC1=O [Peptide No. 2E, (cyclo 3-14)H-D-Cys-Phe-4ClPhe-D-Agl(Me,2Np)-Lys-Thr-Phe-Cys-OH] | binding strength and selectivity for SSTR3, in words (human SSTR3; listed as Peptide 2E): bind strongly and selectively to SSTR3; also recorded: slightly less selective |
|  |  |  |  | bind selectively to human SSTR3 |  |  | (cyclo 3-14)Cbm-D-Cys-Phe-Agl(NMe,Bz)-D-2Nal-Lys-Thr-Phe-Cys-OH [Peptide No. 3C] |  |
|  |  |  |  | bind strongly and selectively to SSTR3 |  |  | (cyclo 3-14)Cbm-D-Cys-Phe-Tyr-D-Agl(Me,2Np)-Lys-Thr-Aph(Ac)-Cys-OH [Peptide No. 2M] |  |
|  |  |  |  | bind strongly and selectively to SSTR3 |  |  | (cyclo 3-14)Cbm-D-Cys-Phe-Tyr-D-Agl(Me,2Np)-Lys-Thr-Aph(Cbm)-Cys-OH [Peptide No. 2N] |  |
|  |  |  |  | bind strongly and selectively to SSTR3 |  |  | (cyclo 3-14)Cbm-D-Cys-Phe-Tyr-D-Agl(Me,2Np)-Lys-Thr-Aph-Cys-OH [Peptide No. 2L] |  |
|  |  |  |  | bind selectively to human SSTR3 |  |  | (cyclo 3-14)H-Cys-Phe-Agl(Me,Bz)-D-1Nal-Lys-Thr-Phe-Cys-OH [Peptide No. 3B] |  |
|  |  |  |  | bind selectively to SSTR3 |  |  | (cyclo 3-14)H-D-Cys-Phe-Agl(NMe,Bz)-D-2Nal-Lys-Thr-Phe-Cys-OH [Peptide No. 3A] |  |
